Values quoted from earlier work as cited in patent US20240315993A1, “ANTIPARASITIC COMPOUNDS” (Intervet Inc., priority 2021, published 2024).

Tests used:
[1] = system: Beet Armyworm (Spodoptera exigua); details: 128-well diet tray, average of eight wells, cited from earlier work; for Test A: Bioassay on BAW, percent mortality rating: Beet Armyworm second instar larvae, 50 μg/cm^2, five to seven days; for Test A: percent mortality of Beet Armyworm (BAW) larvae, rating: 50 μg/cm^2 on artificial diet, second instar larvae, 5-7 days
[2] = system: Cabbage Looper (Trichoplusia ni); details: 128-well diet tray, average of eight wells, cited from earlier work; for Test B: Bioassay on CL, percent mortality rating: Cabbage Looper second instar larvae, 50 μg/cm^2, five to seven days; for Test B: percent mortality of Cabbage Looper (CL) larvae, rating: 50 μg/cm^2 on artificial diet, second instar larvae, 5-7 days
[3] = system: Yellow Fever Mosquito (Aedes aegypti); details: 96-well plate, cited from earlier work; for Test C: Bioassay on Yellow Fever Mosquito, mortality rating: Aedes aegypti larvae about 1 day old, scored after 3 days; for Test C: mortality of Yellow Fever Mosquito larvae, rating: about 1 day-old larvae, graded after 3 days at room temperature

Row | Structure (SMILES) | Test A: Bioassay on BAW, percent mortality rating [1] | Test B: Bioassay on CL, percent mortality rating [2] | Test C: Bioassay on Yellow Fever Mosquito, mortality rating [3] | Test A: percent mortality of Beet Armyworm (BAW) larvae, rating [1] | Test B: percent mortality of Cabbage Looper (CL) larvae, rating [2] | Test C: mortality of Yellow Fever Mosquito larvae, rating [3]
1 | CS(=NC#N)c1ccc(NC(=O)c2cc(NC(=O)C3C(c4cc(Cl)cc(Cl)c4)C3(Cl)Cl)ccc2Cl)cc1 (stereo not drawn) [c92] | A (50-100) | A (50-100) | A (80-100) |  |  | 
2 | O=C(Nc1ccc2c(ccn2CCF)c1)c1cc(NC(=O)C2C(c3cc(Cl)cc(Cl)c3)C2(Cl)Cl)ccc1Cl (stereo not drawn) [c93] | A (50-100) | A (50-100) | A (80-100) |  |  | 
3 | O=C(Nc1ccc2[nH]c(-c3ccccc3)cc2c1)c1cc(NC(=O)C2C(c3cc(Cl)cc(Cl)c3)C2(Cl)Cl)ccc1Cl (stereo not drawn) [c94] | A (50-100) | A (50-100) | A (80-100) |  |  | 
4 | Cc1cccc(NC(=O)c2cc(NC(=O)C3C(c4cc(Cl)cc(Cl)c4)C3(Cl)Cl)ccc2Cl)c1C#N (stereo not drawn) [c95] | A (50-100) | A (50-100) | A (80-100) |  |  | 
5 | CN1Cc2ccc(NC(=O)c3cc(NC(=O)C4C(c5cc(Cl)cc(Cl)c5)C4(Cl)Cl)ccc3Cl)cc2C1 (stereo not drawn) [c96] | A (50-100) | A (50-100) | A (80-100) |  |  | 
6 | CC(C)(C)OC(=O)Nc1cccc(NC(=O)c2cc(NC(=O)C3C(c4cc(Cl)cc(Cl)c4)C3(Cl)Cl)ccc2Cl)n1 (stereo not drawn) [c97] | A (50-100) | A (50-100) | D (No activity noticed in this bioassay) |  |  | 
7 | CC(C)(C)OC(=O)Nc1cccc(NC(=O)c2cc(NC(=O)C3C(c4ccc(F)c(Cl)c4)C3(Cl)Cl)ccc2Cl)n1 (stereo not drawn) [c98] | A (50-100) | A (50-100) | A (80-100) |  |  | 
8 | O=C(Nc1ccc2c(c1)CCN2)c1cc(NC(=O)C2C(c3cc(Cl)cc(Cl)c3)C2(Cl)Cl)ccc1Cl (stereo not drawn) [c99] | A (50-100) | A (50-100) | A (80-100) |  |  | 
9 | CNc1ccc(NC(=O)c2cc(NC(=O)C3C(c4ccc(Br)c(Cl)c4)C3(Cl)Cl)ccc2Cl)c(C)c1 (stereo not drawn) [c100] | A (50-100) | A (50-100) | A (80-100) |  |  | 
10 | Cc1cc(N)ccc1NC(=O)c1cc(NC(=O)C2C(c3ccc(Br)c(Cl)c3)C2(Cl)Cl)ccc1Cl (stereo not drawn) [c101] | A (50-100) | A (50-100) | A (80-100) |  |  | 
11 | Cc1cc(NC(=O)OC(C)(C)C)ccc1NC(=O)c1cc(NC(=O)C2C(c3cc(Cl)cc(Br)c3)C2(Cl)Cl)ccc1Cl (stereo not drawn) [c102] | A (50-100) | A (50-100) | D (No activity noticed in this bioassay) |  |  | 
12 | Cc1cc(N)ccc1NC(=O)c1cc(NC(=O)C2C(c3cc(Cl)cc(Br)c3)C2(Cl)Cl)ccc1Cl (stereo not drawn) [c103] | A (50-100) | A (50-100) | A (80-100) |  |  | 
13 | CN1Cc2ccc(NC(=O)c3cc(NC(=O)C4C(c5cc(Cl)cc(Cl)c5)C4(Cl)Cl)ccc3Cl)cc2C1=O (stereo not drawn) [c104] | A (50-100) | A (50-100) | A (80-100) |  |  | 
14 | CN1Cc2cc(NC(=O)c3cc(NC(=O)C4C(c5cc(Cl)cc(Cl)c5)C4(Cl)Cl)ccc3Cl)ccc2C1=O (stereo not drawn) [c105] | A (50-100) | A (50-100) | A (80-100) |  |  | 
15 | O=C(Nc1cncc([N+](=O)[O-])c1)c1cc(NC(=O)C2C(c3cc(Cl)cc(Cl)c3)C2(Cl)Cl)ccc1Cl (stereo not drawn) [c106] | A (50-100) | A (50-100) | A (80-100) |  |  | 
16 | O=C(Nc1cncc([N+](=O)[O-])c1)c1cc(NC(=O)C2C(c3ccc(Cl)c(Cl)c3)C2(Cl)Cl)ccc1Cl (stereo not drawn) [c107] | A (50-100) | A (50-100) | A (80-100) |  |  | 

Row | Structure (SMILES) | Test A: Bioassay on BAW, percent mortality rating [1] | Test B: Bioassay on CL, percent mortality rating [2] | Test C: Bioassay on Yellow Fever Mosquito, mortality rating [3] | Test A: percent mortality of Beet Armyworm (BAW) larvae, rating [1] | Test B: percent mortality of Cabbage Looper (CL) larvae, rating [2] | Test C: mortality of Yellow Fever Mosquito larvae, rating [3]
17 | O=C(Nc1cncc(NO)c1)c1cc(NC(=O)C2C(c3cc(Cl)cc(Cl)c3)C2(Cl)Cl)ccc1Cl (stereo not drawn) [c108] | A (50-100) | A (50-100) | A (80-100) |  |  | 
18 | Nc1cncc(NC(=O)c2cc(NC(=O)C3C(c4cc(Cl)cc(Cl)c4)C3(Cl)Cl)ccc2Cl)c1 (stereo not drawn) [c109] | A (50-100) | A (50-100) | A (80-100) |  |  | 
19 | O=C(Nc1cncc(NO)c1)c1cc(NC(=O)C2C(c3ccc(Cl)c(Cl)c3)C2(Cl)Cl)ccc1Cl (stereo not drawn) [c110] | A (50-100) | A (50-100) | A (80-100) |  |  | 
20 | Nc1cncc(NC(=O)c2cc(NC(=O)C3C(c4ccc(Cl)c(Cl)c4)C3(Cl)Cl)ccc2Cl)c1 (stereo not drawn) [c111] | A (50-100) | A (50-100) | A (80-100) |  |  | 
21 | Cn1ccc2c(NC(=O)c3cc(NC(=O)C4C(c5cc(Cl)cc(Cl)c5)C4(Cl)Cl)ccc3Cl)cccc21 (stereo not drawn) [c112] | A (50-100) | A (50-100) | A (80-100) |  |  | 
22 | Cn1ccc2cccc(NC(=O)c3cc(NC(=O)C4C(c5cc(Cl)cc(Cl)c5)C4(Cl)Cl)ccc3Cl)c21 (stereo not drawn) [c113] | A (50-100) | A (50-100) | A (80-100) |  |  | 
23 | Cc1cc(N)ccc1NC(=O)c1cc(NC(=O)C2C(c3ccc(Cl)c(Cl)c3)C2(Cl)Cl)ccc1Cl (stereo not drawn) [c114] | A (50-100) | A (50-100) | A (80-100) |  |  | 
24 | COCC(=O)N(C)c1ccc(NC(=O)c2cc(NC(=O)C3C(c4cc(Cl)cc(Cl)c4)C3(Cl)Cl)ccc2Cl)cc1 (stereo not drawn) [c115] |  |  |  | A (50-100) | A (50-100) | B (More than 0 - Less than 80)
25 | CNc1ccc(NC(=O)c2cc(NC(=O)C3C(c4cc(Cl)cc(Cl)c4)C3(Cl)Cl)ccc2Cl)cc1C (stereo not drawn) [c116] |  |  |  | A (50-100) | A (50-100) | A (80-100)
26 | CC(=O)Nc1ccc(NC(=O)c2cc(NC(=O)C3C(c4ccc(F)c(Cl)c4)C3(Cl)Cl)ccc2Cl)cc1 (stereo not drawn) [c117] |  |  |  | A (50-100) | A (50-100) | A (80-100)
27 | CC(=O)Nc1ccc(NC(=O)c2cc(NC(=O)[C@H]3[C@H](c4ccc(F)c(Cl)c4)C3(Cl)Cl)cc(Cl)c2C)cc1 [c118] |  |  |  | A (50-100) | A (50-100) | A (80-100)
28 | O=C(Nc1ccccc1)c1cc(NC(=O)[C@H]2[C@H](c3ccc(F)c(Cl)c3)C2(Cl)Cl)cc(C(F)(F)F)c1Cl [c121] |  |  |  | A (50-100) | A (50-100) | A (80-100)
29 | O=C(Nc1ccccc1)c1c(Cl)ccc(NC(=O)[C@H]2[C@H](c3ccc(F)c(Cl)c3)C2(Cl)Cl)c1Cl [c122] |  |  |  | A (50-100) | A (50-100) | A (80-100)
30 | Cc1c(N)ccc(NC(=O)c2cc(NC(=O)C3C(c4ccc(F)c(C(F)(F)F)c4)C3(Cl)Cl)ccc2Cl)c1C (stereo not drawn) [c123] |  |  |  | A (50-100) | A (50-100) | A (80-100)
31 | Cc1c(NC(=O)c2cc(NC(=O)C3C(c4ccc(F)c(C(F)(F)F)c4)C3(Cl)Cl)ccc2Cl)ccc(NC(=O)C(F)(F)F)c1C (stereo not drawn) [c124] |  |  |  | A (50-100) | A (50-100) | A (80-100)
32 | Cc1c(NC(=O)c2cc(NC(=O)C3C(c4ccc(F)c(C(F)(F)F)c4)C3(Cl)Cl)ccc2Cl)cccc1NC(=O)C(F)(F)F (stereo not drawn) [c125] |  |  |  | A (50-100) | A (50-100) | A (80-100)
